A short description of data set [1]: Single pass perfusion in rat: GI wall and liver metabolism, biliary excretion. In kind it is in vitro ADME. To be noted: for f (g) Xf (h): GI wall metabolism f(g) x liver metabolism f(h). The protocol:
Single pass perfusion studies in rat were performed to assess gastrointestinal (GI) wall metabolism (f(g)), liver metabolism (f(h)), and biliary excretion. The method used has been described in Pang, C. S., J. Pharmacol. Exp. Therapeutics, 333, pp. 788-798 (1984).

The subject of data set [2] is Human whole blood, IL-1β production. In words: Whole blood assay for IL-1β production. The note with it: LPS-stimulated whole blood, IL-1β by ELISA. In kind it is cell-based. Put shortly: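 LPS-stimulated (5.0 ng/ml final) human whole blood incubated with test compound in saline (or plasma/PBS-5% DMSO for hydrophobic compounds) at 30° C for 16-18 hr. Plasma IL-1β then measured by ELISA at 1:200 dilution, against no-LPS, no-inhibitor and vehicle controls.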

The target of a further data set is T1, Caspase-3 (Homo sapiens, UniProt P42574).
T1 sequence (P42574 29-175 limits assumed): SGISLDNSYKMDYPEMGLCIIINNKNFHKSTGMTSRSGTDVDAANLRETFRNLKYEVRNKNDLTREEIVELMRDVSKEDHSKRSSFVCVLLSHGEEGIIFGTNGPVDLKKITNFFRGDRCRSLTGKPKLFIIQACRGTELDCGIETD
T1 sequence (P42574 176-277 limits assumed): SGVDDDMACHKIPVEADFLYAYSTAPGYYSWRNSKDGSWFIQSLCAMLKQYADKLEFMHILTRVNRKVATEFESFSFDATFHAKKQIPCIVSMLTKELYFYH
In words: Caspase-3 enzyme inhibition (Ki). Type of data set: biochemical. The note with it: substrate Ac-DEVD-pNA 60 μM, 8% glycerol in buffer, 37° C. On the procedure:
Ki values for test compounds with the various caspases were obtained by the method of Margolin et al. (J. Biol. Chem., 272 pp. 7223-7228 (1997)). Assays were performed in 10 mM Tris (Sigma Corp, St Louis Mo.) pH 7.5, 1 mM Dithiothreitol (DTT, Research Organic INC, Cleveland, Ohio) and 0.1% CHAPS (Pierce, Rockford Ill.) at 37° C. For caspase-3, a solution of 8% glycerol was added to the assay buffer to improve enzyme stability. A 65 μL aliquot of the assay buffer and 5 μL aliquot of the appropriate dilutions of inhibitor in DMSO where pipetted into a 96 well plate, treated with 10 μL of caspase, then diluted in assay buffer (0.5-40 nM active protein by active site titration). A control containing DMSO but no compound was included for each determination. The plates were then incubated for 15 minutes at 37° C., before addition of the appropriate substrate (20 μL, final concentration 1-4×KM, final assay volume 100 μL) to initiate the reaction. Reaction rates were measured at 37° C. either by following the time dependant increase in absorbance at 405 nm (for the pNA substrates) or in fluorescence (Ex 390, Em 460) (for the AMC substrates). The rates obtained were plotted against inhibitor concentration and the data fit to the Morrison tight-binding equation for competitive inhibitors (Morrison, J. F., Biochem. Biophys. Acta, 185 pp. 269-286 (1969)). The substrates used for the individual assays were as follows:
Caspase-3 Ac-DEVD-pNA (Bachem, King of Prussia, Pa.) (final concentration in assay, 60 μM)

Data set [3] is described as follows: In vivo rat clearance assay (i.v.). The note with it: plasma, iv, i.v. via jugular vein. The protocol: Cannulations of the jugular and carotid vessels of rats under anesthesia are performed one day prior to the pharmacokinetic study. M. J. Free, R. A. Jaffee; ‘Cannulation techniques for the collection blood and other bodily fluids’; in: Animal Models; p. 480-495; N. J. Alexander, Ed.; Academic Press; (1978). Drug (10 mg/mL) is administered via the jugular vein in a vehicle usually consisting of: propylene glycol/saline, containing 100 mM sodium bicarbonate in a 1:1 ratio. Animals are dosed with 10-20 mg drug/kg and blood samples are drawn at 0, 2, 5, 7, 10, 15, 20, 30, 60, and 90 minutes from an indwelling carotid catheter. The blood is centrifuged to plasma and stored at −20° C. until analysis. Pharmacokinetic analysis of data is performed by non-linear regression using standard software such as RStrip (MicroMath Software, UT) and/or Pcnonlin (SCI Software, NC) to obtain clearance values.
Rat plasma is extracted with an equal volume of acetonitrile (containing 0.1% TFA). Samples are then centrifuged at approximately 1,000×g and the supernatant analyzed by gradient HPLC. A typical assay procedure is described below.
200 μL of plasma is precipitated with 200 μL of 0.1% trifluoroacetic acid (TFA) in acetonitrile and 10 μL of a 50% aqueous zinc chloride solution, vortexed then centrifuged at ^˜1000×g and the supernatant collected and analyzed by HPLC.
A standard curve is run at 20, 10, 5, 2 and 1 μg/mL concentrations.

For `C[C@H](NC(=O)c1nccc2ccccc12)C(=O)N1CCC[C@H]1C(=O)N[C@H](C=O)CC(=O)O` [Example 7d], in data set [1], the “Biliary Excretion” value is reported as “A (category “A” indicates <5%)” and the “f (g) Xf (h)” value was “D (Category “D” indicates >0.75)”. In addition, the half-inhibitory concentration (IC50) – broadly, the concentration that inhibits the measured activity by half – in data set [2] lay within 2500 to 7500 nM. The inhibition constant Ki (in general, a measure of affinity in units of concentration, obtained from inhibition or displacement) on Caspase-3 is greater than 1000 nM. The clearance – broadly, a measure of how efficiently the substance is removed, as volume per time – in data set [3] was less than 50 mL/min/kg.

As to `COc1ccc(C(=O)N[C@@H](C)C(=O)N2CCC[C@H]2C(=O)N[C@H](C=O)CC(=O)O)cc1` [Example 7f], in data set [1], the “Biliary Excretion” value is reported as “A (category “A” indicates <5%)” and the “f (g) Xf (h)” value is “C (Category “C” indicates 0.5-0.75)”. In addition, the IC50 in data set [2] is 2500 to 7500 nM. Further, the inhibitory constant (Ki) at Caspase-3 was greater than 1000 nM. Further, the clearance in data set [3] lay within 50 to 80 mL/min/kg.

For the compound `Cc1cc(C(=O)N[C@H](C(=O)N2CCCC2C(=O)N[C@H](C=O)CC(=O)O)C(C)C)cc(C)c1O` (stereo partly drawn) [Example 65, 3-({l-[2-(4-Hydroxy-3,5-dimethyl-benzoyiamino)-3-methyl-butyryl]-pyrrolidine-2-carbonyl}-amino)-4-oxo-butyric acid], in data set [1], the “Biliary Excretion” value is “C (Category “C” indicates >10%)” and the “f (g) Xf (h)” value is on record as “B (Category “B” indicates 0.25-0.49)”. In data set [2], this compound had an IC50 of less than 2500 nM. In data set [3], this compound returned a clearance greater than 80 mL/min/kg.

For the compound `C[C@H](NC(=O)c1ccc(N)c(Cl)c1)C(=O)N1CCC[C@H]1C(=O)N[C@H](C=O)CC(=O)O` [Example 122b, 3-({-[2-(4-Amino-3-chloro-benzoylamino)-propionyl]-pyrrolidine-2-carbonyl}-amino)-4-oxo-butyric acid], in data set [1], the “Biliary Excretion” value is recorded as “A (category “A” indicates <5%)” and the “f (g) Xf (h)” value was “C (Category “C” indicates 0.5-0.75)”. This compound came in with an IC50 in data set [2] of less than 2500 nM. For the same compound, the Ki at Caspase-3 is greater than 1000 nM. This compound gave a clearance in data set [3] of 50 to 80 mL/min/kg.

For the compound `COc1c(Cl)cc(C(=O)N[C@@H](C)C(=O)N2CCC[C@H]2C(=O)N[C@H](C=O)CC(=O)O)cc1Cl` [Example 122c, 3-({1-[2-(3,5-Dichloro-4-methoxy-benzoylamino)-propionyl]-pyrrolidine-2-carbonyl}-amino)-4-oxo-butyric acid], in data set [1], the “Biliary Excretion” value was “B (Category “B” indicates 5-10%)” and the “f (g) Xf (h)” value is reported as “C (Category “C” indicates 0.5-0.75)”. Besides, the IC50 in data set [2] lay in the range of 2500 to 7500 nM. In data set [3], this compound returned a clearance greater than 80 mL/min/kg.

Turning to `COc1c(C)cc(C(=O)N[C@@H](C)C(=O)N2CCC[C@H]2C(=O)N[C@H](C=O)CC(=O)O)cc1C` [Example 122d, 3-({1-[2-(4-Methoxy-3,5-dimethyl-benzoylamino)-propionyl]-pyrrolidine-2-carbonyl}-amino)-4-oxo-butyric acid], in data set [1], the “Biliary Excretion” value is recorded as “A (category “A” indicates <5%)” and the “f (g) Xf (h)” value is listed as “C (Category “C” indicates 0.5-0.75)”. For the same compound, the IC50 in data set [2] was less than 2500 nM. The Ki on Caspase-3 was greater than 1000 nM. This compound displayed a clearance in data set [3] of 50 to 80 mL/min/kg.

On to `CC(=O)Nc1ccc(C(=O)N[C@@H](C)C(=O)N2CCC[C@H]2C(=O)N[C@H](C=O)CC(=O)O)cc1Cl` [Example 122f, 3-({1-[2-(4-Acetylamino-3-chloro-benzoylamino)-propionyl]-pyrrolidine-2-carbonyl}-amino)-4-oxo-butyric acid], for which the half-maximal inhibitory concentration (IC50) in data set [2] was less than 2500 nM. Further, the Ki on Caspase-3 is greater than 1000 nM. Also, in data set [3], the clearance was less than 50 mL/min/kg.

Values taken from patent US20030232986A1, “Inhibitors of caspases” (Vertex Pharmaceuticals Incorporated, priority 1998, published 2003).
